Reference: publication PMC5663395, “Chemical Validation of Methionyl-tRNA Synthetase as a Druggable Target in Leishmania donovani” (ACS Infectious Diseases, 2017)
Like-named read-outs stand apart in the source and are kept apart here.

Key:
[1] = system: L. donovani axenic amastigotes; assay: Leishmania axenic amastigote viability assay; assay type: cell-based, Leishmania donovani; conditions: Leishmania donovani
Description: carried out as described above using 5%, 10% and 20% FBS in the media. To examine the effect of the methionine concentration on the potency of DDD806905 parasites were grown in the presence of drug and in the presence (or absence) of 20-fold excess methionine (0.3 g/l). IC50 curve fitting was undertaken in GraFit version 6.0 (Erithacus Software) using a four-parameter logistic dose-response curve (equation 6), with s the slope.
Leishmania Axenic Amastigote Assay
The Leishmania axenic amastigote assay was performed using the method published in Nühs et al 15.
Leishmania Intracellular Amastigote Assay
The intramacrophage Leishmania assay was performed using a modified version of the method described in De Rycker et al 16. […]
amphotericin B was included. Controls were as follows: columns 11 and 12: DMSO, columns 23 and 24: amphotericin B (final concentration 2 µM). 350 nl of compound was pre-dispensed into 384-well sterile intermediary plates. To the intermediary plates, 35 µl of THP-1 media was added and plates were shaken for >5 min to ensure complete mixing. THP-1 cells (8,000 per well, 50 µl) were plated into black clear-bottom 384-well plates (Corning) in presence of 20 nM phorbol 12-myristate 13- […]
in a humidified incubator for 75 h. The cells were then washed with 450 µl sterile phosphate buffered saline (PBS) supplemented with 1 mM CaCl2, 0.5 mM MgCl2, 0.1% (w/v) bovine serum albumin (PBS-A) and amastigotes were added to all wells at a multiplicity of infection of 5 (40,000 amastigotes per well). After 40 min at room temperature, plates were returned to the incubator.
Amastigotes were incubated in the presence of THP-1 macrophages for 16 h. Any remaining extracellular amastigotes were subsequently removed by washing with PBS-A followed by addition of 25 µl of the compound pre-dilutions using an Ipette-pro pipetting station (FluidX). The final dilution of each compound was 200-fold. Plates were incubated for 96 h and then washed (250 µl PBS-A) and fixed (4 % (v/v) formaldehyde-PBS, 30 min, room temperature). After fixation, the wells were washed with 250 µl PBS, stained (10 µg/ml DAPI, 0.4 µg/mL HCS Cellmask Deep Red in PBS + 0.1% (v/v) Triton X-100, 30 min, room temperature) and washed with 250 µl PBS. Finally, PBS + 0.05% (v/v) thimerosal was added to the wells, the plates were sealed and imaged on a high-content microscope (GE IN Cell 2000) using a 10x objective. Image analysis was carried out with GE IN Cell Analyzer 1000 Workstation using the “Multi Target Analysis” module. For each well, i) THP-1 cell count (cytotoxicity readout) and ii) average number of amastigotes per cell (potency readout) were […]

[2] = Plasma protein binding, equilibrium dialysis, mouse plasma; assay type: in vitro ADME; conditions: female, CD1, read-out: fu (unbound fraction)
Description: which gave the best fit to the data was then recorded as the logP. Using the logP and an experimentally determined pKa (see above), the software generated a lipophilicity plot showing changes in the logD with increasing pH and from this plot a logD7.3 and logD5.6 values were recorded.
Plasma Protein Binding Determination
A 96-well equilibrium dialysis apparatus was used to determine the free fraction in plasma for DDD806905 (HT Dialysis LLC, Gales Ferry, CT). Membranes (12-14 kDA cut-off) were conditioned in deionised water for 60 minutes, followed by conditioning in 80:20 deionised water:ethanol for 20 minutes, and then rinsed in isotonic buffer before use. Female CD1 mouse plasma or human plasma was removed from the freezer and allowed to thaw on the day of experiment. Thawed plasma was then centrifuged (Allegra X12-R, Beckman Coulter, USA), spiked with test compound (final concentration 10 μg/ml), and 150 μL aliquots (n=6 replicate determinations) loaded into the 96-well equilibrium dialysis plate. […] All samples were analysed by UPLC-MS/MS on a Quattro Premier XE Mass Spectrometer (Waters Corporation, USA).
The unbound fraction (fu) was determined as the ratio of the peak area in buffer to that in plasma. […]

Structure (SMILES): Cl.Cl.O=c1nc(NCCCNCc2cc3c(Cl)cc(Cl)cc3[nH]2)[nH]c2ccccc12 [DDD806905, 2-((3-(((4,6-dichloro-1H-indol-2-yl)methyl)amino)propyl)amino)quinazolin-4(1H)-one dihydrochloride]
- EC50 ([1]; Table 1, read-out: Leishmania Axenic Amastigote EC50): 14 µM
- EC50 ([1]; media pH 5.6, read-out: axenic amastigote EC50): 13.7 µM
- fraction unbound at 5 h, 10 μg/ml [2]: 0.006
